Results reported in patent publication US7115636B2, “Hetrocyclic aryl sulphonamides” (Bayer Healthcare AG, priority 2001, dated 2006).

Columns and labels:
Format in all cases: cell-based
[1] = Cytotoxicity on HELF cells (anti-HCMV cytopathogenicity test plates); settings: human, human lung fibroblasts (HELF), 6 days incubation
Description: (§1) The test compounds were employed as 50 millimolar (mM) solutions in dimethyl sulfoxide (DMSO). Ganciclovir, foscarnet and cidofovir served as reference compounds. After the addition of 2 μl in each case of the 50, 5, 0.5 and 0.05 mM DMSO stock solutions to 98 μl each of cell culture medium in row […] in duplicate, 1:2 dilutions using 50 μl each of medium up to row 11 of the 96-well plate were carried out. The wells in rows 1 and 12 each contained 50 μl of medium. 150 μl each of a suspension of 1×10^4 cells (human lung fibroblasts [HELF]) were then pipetted into the wells (row 1=cell control) or a mixture of HCMV-infected and non-infected HELF cells (M.O.I.=0.001-0.002), i.e. 1-2 infected cells to 1000 non-infected cells, was pipetted into rows 2-12. Row 12 (without substance) served as a virus control. The final test concentrations were 250-0.0005 μM. The plates were incubated at 37° C./5% CO2 for 6 days, i.e. until all cells were infected in the virus controls (100% cytopathogenic effect [CPE]). The wells were then fixed by addition of a mixture of formalin and Giemsa's stain and stained (30 minutes), washed with double-distilled water and dried at 50° C. in a drying oven. The plates were then evaluated visually using an overhead microscope (Plaque multiplier from Technomara). […]

[2] = test system: HCMV (human cytomegalovirus); test: Anti-HCMV cytopathogenicity test; settings: Human betaherpesvirus 5, 144 h; inhibition of CPE by 50%, HCMV-infected HELF cells, M.O.I. 0.001–0.002, 6 days
Description: as §1, with “Anti-HCMV (anti-human cytomegalovirus) and anti-MCMV (anti-murine cytomegalovirus) cytopathogenicity tests: The test” for “The test”

[3] = Cytotoxicity on 3T3 cells (anti-MCMV test); settings: 3T3 mouse cells, 5 days incubation
[4] = test system: MCMV (murine cytomegalovirus); test: Anti-MCMV cytopathogenicity test; settings: Murid betaherpesvirus 1, 120 h; MCMV on 3T3 mouse cells, M.O.I. 0.05–0.1, 5 days
Description: Anti-HCMV (anti-human cytomegalovirus) and anti-MCMV (anti-murine cytomegalovirus) cytopathogenicity tests:
The test compounds were employed as 50 millimolar (mM) solutions in dimethyl sulfoxide (DMSO). Ganciclovir, foscarnet and cidofovir served as reference compounds. After the addition of 2 μl in each case of the 50, 5, 0.5 and 0.05 mM DMSO stock solutions to 98 μl each of cell culture medium in row 2 A-H in duplicate, 1:2 dilutions using 50 μl each of medium up to row 11 of the 96-well plate were carried out. The wells in rows 1 and 12 each contained 50 μl of medium. 150 μl each of a suspension of 1×10^4 cells (human lung fibroblasts [HELF]) were then pipetted into the wells (row 1=cell control) or a mixture of HCMV-infected and non-infected HELF cells (M.O.I.=0.001–0.002), i.e. 1–2 infected cells to 1000 non-infected cells, was pipetted into rows 2–12. Row 12 (without substance) served as a virus control. The final test concentrations were 250–0.0005 μM. The plates were incubated at 37° C./5% CO2 for 6 days, i.e. until all cells were infected in the virus controls (100% cytopathogenic effect [CPE]). The wells were then fixed by addition of a mixture of formalin and Giemsa's stain and stained (30 minutes), washed with double-distilled water and dried at 50° C. in a drying oven. The plates were then evaluated visually using an overhead microscope (Plaque multiplier from Technomara). […]

Row | Structure (SMILES) | CC50 at 6 days [1] | EC50 [2] | CC50 at 5 days [3] | EC50 [4]
1 | CC(C)[C@H](N)c1nc(-c2ccc(S(=O)(=O)Nc3cccc(NC(=O)C(C)(C)CF)c3)cc2)no1 [Example 3, N-(3-{[(4-{5-[(1S)-1-Amino-2-methylpropyl]-1,2,4-oxadiazol-3-yl}phenyl)sulphonyl]amino}phenyl)-3-fluoro-2,2-dimethylpropanamide] | > 250000 nM | 74 nM | 63000 nM | 74 nM
2 | CC1(C(=O)Nc2ccc(NS(=O)(=O)c3cccc(-c4noc([C@@H](N)CCCCN)n4)c3)cc2)CC1 [Example 1] | > 250000 nM | 28 nM | 18000 nM | 35 nM
